Data as given in EPA's ToxValDB 9.5 (doi:10.2903/j.efsa.2020.5755).

Assays:
Rattus norvegicus = conditions: for LD50: acute, mortality
Tagia sp. = conditions: chronic/long-term; growth
Neomysis kadiakensis = conditions: chronic/long-term; duration: 39 days; other
Apis mellifera = conditions: acute, mortality
Pimephales promelas = conditions: chronic/long-term; reproduction
Oncorhynchus mykiss = conditions: acute; duration: 96 hours; mortality
Anas platyrhynchos = conditions: reproductive
Coturnix japonica = conditions: acute; oral; mortality
Typhlodromus pyri = assay: LR50; higher = less toxic; conditions: mortality
Canidae = conditions: chronic; duration: 1 years; Dog Other
Xenopus laevis = conditions: chronic/long-term, development
Daphnia magna = conditions: chronic/long-term; duration: 28 days; reproduction
Folsomia candida = conditions: chronic/long-term; duration: 28 days; reproduction
Colinus virginianus = conditions: reproduction developmental
Landoltia sp. = conditions: chronic/long-term; duration: 7 days; frond number

## S=C1SSC2=NCCN12 [5,6-Dihydro-3H-imidazo[2,1-c]-1,2,4-dithiazole-3-thione]
Rattus norvegicus; oral
  LD50: 240 mg/kg-day
Tagia sp.
  NOEC: 20 mg/kg

## S=C([S-])NCCNC(=S)[S-].S=C([S-])NCCNC(=S)[S-].[Mn+2].[Zn+2] [Mancozeb]
Rattus norvegicus; oral
  LD50: > 2000 mg/kg-day
Rattus norvegicus; chronic
  NOAEL: 2 mg/kg-day
Rattus norvegicus; subchronic, duration: 90 days, oral, clinical chemistry
  NOAEL: 6.8 mg/kg-day
Neomysis kadiakensis
  NOEC: 1.64 µg/L
Apis mellifera; dermal
  LD50: 162 µg/piece
Apis mellifera; oral, unspecified
  LD50: 141 µg/piece
Pimephales promelas
  NOEC: 1.35 µg/L
Tagia sp.
  NOEC: 10 mg/kg
Oncorhynchus mykiss
  LC50: 0.074 µg/mL
Anas platyrhynchos
  NOEL: 18.6 mg/kg-day
Coturnix japonica
  LD50: > 2000 mg/kg-day
Typhlodromus pyri; chronic/long-term, duration: 14 days
  LR50: 107 g/ha
Typhlodromus pyri; not reported
  LR50: 26.7 g/ha

## S=C1NCCN1 [4,5-Dihydro-2-mercaptoimidazole]
Rattus norvegicus; chronic
  NOAEL: 2 mg/kg-day
Rattus norvegicus; developmental, development
  NOAEL: 5 mg/kg-day
Rattus norvegicus; reproduction developmental
  NOAEL: 0.2 mg/kg-day
Canidae
  NOAEL: 0.2 mg/kg-day
Tagia sp.
  NOEC: 24 mg/kg
Xenopus laevis; duration: 28 days
  NOEC: 10000 µg/L
Xenopus laevis; duration: 90 days
  NOEC: 1000 µg/L
Daphnia magna
  NOEC: 2000 µg/L
Folsomia candida
  NOEC: 10.6 mg/kg
Colinus virginianus
  NOEL: 1.8 mg/kg-day
Landoltia sp.
  NOEC: 960000 µg/L

## O=C1NCCN1 [Ethylene urea]
Rattus norvegicus; oral
  LD50: > 5000 mg/kg-day
Rattus norvegicus; reproduction developmental, oral, reproduction
  NOAEL: 37 mg/kg-day
Oncorhynchus mykiss
  LC50: > 122 µg/mL
